From US12691156B2, “Prebiotic compositions and method for promoting growth of Hafnia alvei by using the same” (TCI CO., LTD., priority 2022, dated 2026)

System: Hafnia alvei BCRC10906
Assay: Influence of prebiotic compositions in different combinations on Hafnia alvei growth (OD600, Embodiment 4)
Type: cell-based
Details: for ability to promote the growth of Hafnia alvei (in words) / Relative bacterial count (%): 1 g formula in 10 mL BHI, 24 hours; for Absorbance (OD600): 10 mL BHI medium containing 1 g formula, anaerobic culture 37° C. 24 hours, control group 0.078 ± 0.039; for Relative bacterial count (%): converted from OD600, control group = 100 ± 50
Text: The groups were divided into a control group and 11 experimental groups. The experimental groups included 6 single-formula experimental groups and 5 complex-formula experimental groups, namely a single-formula experimental group to a single-formula experimental group, and a complex-formula experimental group to a complex-formula experimental group. The adopted liquid medium was a brain heart infusion broth (BHI, hereinafter referred to as the BHI medium, and purchased from DifcoTM). The adopted test strains were Hafnia alvei BCRC10906 purchased from Bioresource Collection and Research Center (BCRC). Each group is shown as Table 5. Control group: No prebiotics were added, and the experimental medium was 10 ml of the BHI medium. 6 single-formula experimental groups: A single-formula experimental group containing erythritol (purchased from SWEET TOWN ENTERPRISE CORP.), a single-formula experimental group containing arabinose (purchased from […] Co., Ltd.), a single-formula experimental group containing Arabic gum (purchased from Buildmore Enterprise Co., Ltd.), a single-formula experimental group containing fructooligosaccharide (purchased from Panel Japan Co., Ltd.), a single-formula experimental group containing soybean peptide powder (purchased from FUJI OIL Co. Ltd.), and a single-formula experimental group containing the black tea ferment prepared in Embodiment 1. The experimental medium of each group was 10 ml of the BHI medium containing 1 g of prebiotics (namely, erythritol, arabinose, Arabic gum, fructooligosaccharide, soybean peptide powder, the black tea ferment prepared in Embodiment 1. The 6 single-formula experimental groups were also called single-ingredient formulas to [6]). 5 complex-formula experimental groups: A complex-formula experimental group containing the black tea ferment prepared in Embodiment 1 and the soybean peptide powder; a complex-formula experimental group containing the black tea ferment prepared in Embodiment 1, the soybean peptide powder and erythritol; a complex-formula experimental group containing the black tea ferment prepared in Embodiment 1, the soybean peptide powder and fructooligosaccharide; a complex-formula experimental group containing the black tea ferment prepared in Embodiment 1, the soybean peptide powder and arabinose; and a complex-formula experimental group containing the black tea ferment prepared in Embodiment 1, the soybean peptide powder and Arabic gum. The weight ratio of the prebiotic compositions of the complex-formula experimental groups was 1:1 or 1:1:1. The experimental medium of each group was 10 ml of the BHI medium containing 1 g of prebiotic composition (namely, a combination of 0.5 g of the black tea ferment prepared in Embodiment 1 and 0.5 g of the soybean peptide powder, a combination of about 0.33 g of the black tea ferment prepared in Embodiment 1, about 0.33 g of the soybean peptide powder and about 0.33 g of erythritol, a combination of about 0.33 g of the black tea ferment prepared in Embodiment 1, about 0.33 g of the soybean peptide powder and about 0.33 g of fructooligosaccharide , a combination of about 0.33 g of the black tea ferment prepared in Embodiment 1, about 0.33 g of the soybean peptide powder and about 0.33 g of arabinose, and a combination of about 0.33 g of the black tea ferment prepared in Embodiment 1, about 0.33 g of the soybean peptide powder and about 0.33 g of Arabic gum; and the 5 complex-formula experimental groups are also referred to as complex-ingredient formulas to [5]). [table] Firstly, 5% (v/v) of Hafnia alvei was inoculated to the BHI medium, and activated in an anaerobic operation box (5% of hydrogen, 10% of carbon dioxide and 85% of nitrogen) at 37° C. for 24 hours to obtain an experimental bacterial solution. […]

Structure (SMILES) | ability to promote the growth of Hafnia alvei (in words) | Absorbance (OD600) | Absorbance (OD600) (listed as single-formula experimental group [1]) | Relative bacterial count (%) | Absorbance (OD600) (listed as single-formula experimental group [2])
OC[C@@H](O)[C@@H](O)CO [Single-formula experimental group [1], Erythritol] | promoted the growth of Hafnia alvei | 0.169 ± 0.026 | 0.169±0.026 | 217 ± 34 | 
O=C[C@@H](O)[C@H](O)[C@H](O)CO [Single-formula experimental group [2], Arabinose] | promoted the growth of Hafnia alvei | 0.176 ± 0.038 |  | 226 ± 49 | 0.176±0.038
